Results from US10758534B2 (Vertex Pharmaceuticals Incorporated, priority 2014, dated 2020).

Target: T1, F508del (Homo sapiens, UniProt P13569, DEL508-508)
T1 construct: expressed in transfected cells
Assay: Protocol 2: FRET membrane potential optical assay (VIPR), identification of correction compounds
Format: cell-based
Details: F508del CFTR modulator activity; compounds of Table 1; read-out: EC30
In short: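 FRET read-out (CC2-DMPE donor, DiSBAC2(3) voltage-sensitive acceptor) of membrane depolarization on VIPR II. Corrector candidates incubated 16 hrs at 37° C. with NIH3T3 cells expressing F508del; temperature correction at 27° C. as positive control; stimulation by 10 μM forskolin, 20 μM genistein, chloride-free gluconate bath.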

T1 sequence (P13569 with tags, fused parts or gaps DEL508-508): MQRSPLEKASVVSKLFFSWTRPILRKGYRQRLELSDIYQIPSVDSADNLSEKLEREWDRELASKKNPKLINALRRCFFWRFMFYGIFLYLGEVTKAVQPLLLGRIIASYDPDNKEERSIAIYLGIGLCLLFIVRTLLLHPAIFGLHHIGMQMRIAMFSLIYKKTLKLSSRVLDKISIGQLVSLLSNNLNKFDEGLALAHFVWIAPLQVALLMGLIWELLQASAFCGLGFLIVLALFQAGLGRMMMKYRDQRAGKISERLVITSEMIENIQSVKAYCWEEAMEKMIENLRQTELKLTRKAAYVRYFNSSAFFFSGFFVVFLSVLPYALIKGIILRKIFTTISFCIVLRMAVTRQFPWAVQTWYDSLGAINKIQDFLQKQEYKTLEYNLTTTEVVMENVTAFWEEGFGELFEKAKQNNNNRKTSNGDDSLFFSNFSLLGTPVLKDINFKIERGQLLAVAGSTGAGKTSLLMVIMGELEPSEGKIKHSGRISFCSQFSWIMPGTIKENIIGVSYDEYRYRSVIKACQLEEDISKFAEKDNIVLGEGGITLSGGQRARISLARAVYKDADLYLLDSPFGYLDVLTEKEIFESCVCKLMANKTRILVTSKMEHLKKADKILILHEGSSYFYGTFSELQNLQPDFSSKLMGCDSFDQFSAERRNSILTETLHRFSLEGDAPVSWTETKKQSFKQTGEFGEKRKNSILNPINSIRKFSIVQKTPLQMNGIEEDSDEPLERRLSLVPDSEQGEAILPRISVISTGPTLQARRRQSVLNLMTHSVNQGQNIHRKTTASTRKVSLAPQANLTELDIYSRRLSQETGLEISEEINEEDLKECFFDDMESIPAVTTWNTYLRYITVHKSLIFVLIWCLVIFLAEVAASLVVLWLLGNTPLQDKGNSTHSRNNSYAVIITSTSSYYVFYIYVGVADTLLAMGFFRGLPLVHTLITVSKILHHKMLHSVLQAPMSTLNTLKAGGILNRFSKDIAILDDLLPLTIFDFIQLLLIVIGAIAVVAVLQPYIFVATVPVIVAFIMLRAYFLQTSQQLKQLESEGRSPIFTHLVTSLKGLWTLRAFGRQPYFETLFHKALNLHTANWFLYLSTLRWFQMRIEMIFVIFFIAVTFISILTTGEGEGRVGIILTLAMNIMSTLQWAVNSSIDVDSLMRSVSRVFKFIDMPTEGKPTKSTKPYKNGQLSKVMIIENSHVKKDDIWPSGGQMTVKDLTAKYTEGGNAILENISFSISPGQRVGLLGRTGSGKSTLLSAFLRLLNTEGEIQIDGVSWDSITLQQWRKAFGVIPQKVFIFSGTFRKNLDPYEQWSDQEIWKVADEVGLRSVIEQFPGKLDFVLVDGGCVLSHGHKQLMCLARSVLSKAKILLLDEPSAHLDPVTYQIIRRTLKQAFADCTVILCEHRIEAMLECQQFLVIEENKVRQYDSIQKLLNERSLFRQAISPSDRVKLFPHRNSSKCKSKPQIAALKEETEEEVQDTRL

Compound | EC30 [µM]
C[C@@H]1CN(c2nc3ccccc3cc2C(=O)NS(=O)(=O)c2cccc(N)n2)C(C)(C)C1 [Compound 2265, N-[(6-amino-2-pyridyl)sulfonyl]-2-[(4S)-2,2,4-trimethylpyrrolidin-1-yl]quinoline-3-carboxamide] | < 3
CC(C)COc1cccc(-c2ccc(C(=O)NS(=O)(=O)c3ccc[nH]c3=O)c(N3C[C@@H](C)CC3(C)C)n2)c1 [Compound 2267, 6-(3-isobutoxyphenyl)-N-[(2-oxo-1H-pyridin-3-yl)sulfonyl]-2-[(4S)-2,2,4-trimethylpyrrolidin-1-yl]pyridine-3-carboxamide] | < 3
COc1cccc(-c2ccc(C(=O)NS(=O)(=O)c3cccnc3N)c(N3C[C@@H](C)CC3(C)C)n2)n1 [Compound 2268, N-[(2-amino-3-pyridyl)sulfonyl]-6-(6-methoxy-2-pyridyl)-2-[(4S)-2,2,4-trimethylpyrrolidin-1-yl]pyridine-3-carboxamide] | < 3
CC1CN(c2ncccc2C(=O)NS(=O)(=O)c2cccc(OCc3cccc4ccccc34)n2)C(C)(C)C1 (stereo not shown) [Compound 2270, N—[[6-(1-naphthylmethoxy)-2-pyridyl]sulfonyl]-2-(2,2,4-trimethylpyrrolidin-1-yl)pyridine-3-carboxamide] | < 3
C[C@@H]1CN(c2nc(-c3cc(F)cc(F)c3)ccc2C(=O)NS(=O)(=O)c2cccnc2N)C(C)(C)C1 [Compound 2272, N-[(2-amino-3-pyridyl)sulfonyl]-6-(3,5-difluorophenyl)-2-[(4S)-2,2,4-trimethylpyrrolidin-1-yl]pyridine-3-carboxamide] | < 3
CC1CN(c2ncccc2C(=O)NS(=O)(=O)c2cccc(OCc3ccccc3Cl)n2)C(C)(C)C1 (stereo not shown) [Compound 2273, N—[[6-[(2-chlorophenyl)methoxy]-2-pyridyl]sulfonyl]-2-(2,2,4-trimethylpyrrolidin-1-yl)pyridine-3-carboxamide] | < 3
CC1CN(c2ncccc2C(=O)NS(=O)(=O)c2cccc(Nc3cccc4cnccc34)n2)C(C)(C)C1 (stereo not shown) [Compound 2274, N—[[6-(5-isoquinolylamino)-2-pyridyl]sulfonyl]-2-(2,2,4-trimethylpyrrolidin-1-yl)pyridine-3-carboxamide] | 3 to 10
CC1(C)C(Cc2ccccc2)CCN1c1ncccc1C(=O)NS(=O)(=O)c1cccc(N)n1 (stereo not shown) [Compound 2275, N-[(6-amino-2-pyridyl)sulfonyl]-2-(3-benzyl-2,2-dimethyl-pyrrolidin-1-yl)pyridine-3-carboxamide] | 3 to 10
Cc1ccc(-c2nc(-c3cc(F)cc(OCC(C)C)c3)ccc2C(=O)NS(=O)(=O)N2CC[C@@H](N)C2)cc1 [Compound 2276, N-[(3R)-3-aminopyrrolidin-1-yl]sulfonyl-6-(3-fluoro-5-isobutoxy-phenyl)-2-(p-tolyl)pyridine-3-carboxamide] | < 3
C[C@@H]1CN(c2nc(C3CCOC3)ccc2C(=O)NS(=O)(=O)c2ccccc2)C(C)(C)C1 (stereo partly drawn) [Compound 2277, N-(benzenesulfonyl)-6-tetrahydrofuran-3-yl-2-[(4S)-2,2,4-trimethylpyrrolidin-1-yl]pyridine-3-carboxamide] | < 3
CCOc1cc(F)cc(-c2ccc(C(=O)NS(=O)(=O)c3ccc[nH]c3=O)c(N3C[C@@H](C)CC3(C)C)n2)c1 [Compound 2278, 6-(3-ethoxy-5-fluoro-phenyl)-N-[(2-oxo-1H-pyridin-3-yl)sulfonyl]-2-[(4S)-2,2,4-trimethylpyrrolidin-1-yl]pyridine-3-carboxamide] | < 3
Cc1cc(-c2ccc(C(=O)NS(=O)(=O)c3cccc(N)n3)c(N3C[C@@H](C)CC3(C)C)n2)cnc1N(C)CC(C)C [Compound 2279, N-[(6-amino-2-pyridyl)sulfonyl]-6-[6-[isobutyl(methyl)amino]-5-methyl-3-pyridyl]-2-[(4S)-2,2,4-trimethylpyrrolidin-1-yl]pyridine-3-carboxamide] | < 3
C[C@@H]1CN(c2nc(-c3ccc4ccccc4c3)ccc2C(=O)NS(=O)(=O)c2cccnc2N)C(C)(C)C1 [Compound 2280, N-[(2-amino-3-pyridyl)sulfonyl]-6-(2-naphthyl)-2-[(4S)-2,2,4-trimethylpyrrolidin-1-yl]pyridine-3-carboxamide] | < 3
CC1CN(c2ncccc2C(=O)NS(=O)(=O)c2cccc(Nc3cc(F)cc(F)c3)n2)C(C)(C)C1 (stereo not shown) [Compound 2282, N—[[6-(3,5-difluoroanilino)-2-pyridyl]sulfonyl]-2-(2,2,4-trimethylpyrrolidin-1-yl)pyridine-3-carboxamide] | < 3
CC1CN(c2ncc(-c3ccccc3OC(C)C)cc2C(=O)NS(=O)(=O)c2cccc(N)n2)C(C)(C)C1 (stereo not shown) [Compound 2283, N-[(6-amino-2-pyridyl)sulfonyl]-5-(2-isopropoxyphenyl)-2-(2,2,4-trimethylpyrrolidin-1-yl)pyridine-3-carboxamide] | < 3
C[C@@H]1CN(c2nc(-c3ccc(F)c(F)c3)ccc2C(=O)NS(=O)(=O)c2ccc[nH]c2=O)C(C)(C)C1 [Compound 2284, 6-(3,4-difluorophenyl)-N-[(2-oxo-1H-pyridin-3-yl)sulfonyl]-2-[(4S)-2,2,4-trimethylpyrrolidin-1-yl]pyridine-3-carboxamide] | < 3
CC(C)COc1cc(F)cc(-c2ccc(C(=O)NS(=O)(=O)c3cccc(N)n3)c(N(C)CC3CCCCC3)n2)c1 [Compound 2289, N-[(6-amino-2-pyridyl)sulfonyl]-2-[cyclohexylmethyl(methyl)amino]-6-(3-fluoro-5-isobutoxy-phenyl)pyridine-3-carboxamide] | < 3

Now from value to compound:

EC30 [µM] | Compound
< 3 | Cc1cccc(N2CCN(c3cccc(S(=O)(=O)NC(=O)c4cccnc4N4CC(C)CC4(C)C)n3)CC2)n1 (stereo not shown) [Compound 2285, N—[[6-[4-(6-methyl-2-pyridyl)piperazin-1-yl]-2-pyridyl]sulfonyl]-2-(2,2,4-trimethylpyrrolidin-1-yl)pyridine-3-carboxamide]
< 3 | CC1CN(c2ncccc2C(=O)NS(=O)(=O)c2cccc(OCc3ccc(C(C)(C)C)cc3)n2)C(C)(C)C1 (stereo not shown) [Compound 2286, N—[[6-[(4-tert-butylphenyl)methoxy]-2-pyridyl]sulfonyl]-2-(2,2,4-trimethylpyrrolidin-1-yl)pyridine-3-carboxamide]
< 3 | Cc1cccc(-c2ccc(C(=O)NS(=O)(=O)c3cccc(N)n3)c(N3C[C@@H](C)CC3(C)C)n2)c1C [Compound 2287, N-[(6-amino-2-pyridyl)sulfonyl]-6-(2,3-dimethylphenyl)-2-[(4S)-2,2,4-trimethylpyrrolidin-1-yl]pyridine-3-carboxamide]
< 3 | CC1CN(c2ncc(-c3ccc(N(C)C)cc3)cc2C(=O)NS(=O)(=O)c2cccc(N)n2)C(C)(C)C1 (stereo not shown) [Compound 2288, N-[(6-amino-2-pyridyl)sulfonyl]-5-(4-dimethylaminophenyl)-2-(2,2,4-trimethylpyrrolidin-1-yl)pyridine-3-carboxamide]
3 to 10 | CC(C)n1cc(-c2ccc(C(=O)NS(=O)(=O)c3cccnc3N)c(N3C[C@@H](C)CC3(C)C)n2)cn1 [Compound 2290, N-[(2-amino-3-pyridyl)sulfonyl]-6-(1-isopropylpyrazol-4-yl)-2-[(4S)-2,2,4-trimethylpyrrolidin-1-yl]pyridine-3-carboxamide]
< 3 | C[C@@H]1CN(c2nc(-c3cccc(F)c3F)ccc2C(=O)NS(=O)(=O)c2cccnc2N)C(C)(C)C1 [Compound 2291, N-[(2-amino-3-pyridyl)sulfonyl]-6-(2,3-difluorophenyl)-2-[(4S)-2,2,4-trimethylpyrrolidin-1-yl]pyridine-3-carboxamide]
< 3 | CC1CN(c2ncccc2C(=O)NS(=O)(=O)c2cccc(Nc3ccc(C(F)(F)F)cc3)n2)C(C)(C)C1 (stereo not shown) [Compound 2292, N—[[6-[4-(trifluoromethyl)anilino]-2-pyridyl]sulfonyl]-2-(2,2,4-trimethylpyrrolidin-1-yl)pyridine-3-carboxamide]
< 3 | COc1cc(OC)cc(Oc2cccc(S(=O)(=O)NC(=O)c3cccnc3N3CC(C)CC3(C)C)n2)c1 (stereo not shown) [Compound 2293, N—[[6-(3,5-dimethoxyphenoxy)-2-pyridyl]sulfonyl]-2-(2,2,4-trimethylpyrrolidin-1-yl)pyridine-3-carboxamide]
3 to 10 | Cc1cccc(COc2cccc(S(=O)(=O)NC(=O)c3cccnc3N3CC(C)CC3(C)C)n2)n1 (stereo not shown) [Compound 2294, N—[[6-[(6-methyl-2-pyridyl)methoxy]-2-pyridyl]sulfonyl]-2-(2,2,4-trimethylpyrrolidin-1-yl)pyridine-3-carboxamide]
3 to 10 | C[C@@H]1CN(c2nc(-c3cc(F)ccc3O)ccc2C(=O)NS(=O)(=O)c2ccc[nH]c2=O)C(C)(C)C1 [Compound 2295, 6-(5-fluoro-2-hydroxy-phenyl)-N-[(2-oxo-1H-pyridin-3-yl)sulfonyl]-2-[(4S)-2,2,4-trimethylpyrrolidin-1-yl]pyridine-3-carboxamide]
< 3 | C[C@@H]1CN(c2nc(-c3ccc(C(F)(F)F)cc3)ccc2C(=O)NS(=O)(=O)c2cccc(N)n2)C(C)(C)C1 [Compound 2296, N-[(6-amino-2-pyridyl)sulfonyl]-6-[4-(trifluoromethyl)phenyl]-2-[(4S)-2,2,4-trimethylpyrrolidin-1-yl]pyridine-3-carboxamide]
< 3 | CC1CN(c2ncccc2C(=O)NS(=O)(=O)c2cccc(N3CCCC(Cc4ccccc4)C3)n2)C(C)(C)C1 (stereo not shown) [Compound 2297, N—[[6-(3-benzyl-1-piperidyl)-2-pyridyl]sulfonyl]-2-(2,2,4-trimethylpyrrolidin-1-yl)pyridine-3-carboxamide]
< 3 | CC1CN(c2ncccc2C(=O)NS(=O)(=O)c2cccc(Oc3ccccc3Cl)n2)C(C)(C)C1 (stereo not shown) [Compound 2298, N—[[6-(2-chlorophenoxy)-2-pyridyl]sulfonyl]-2-(2,2,4-trimethylpyrrolidin-1-yl)pyridine-3-carboxamide]
< 3 | CC1CN(c2ncccc2C(=O)NS(=O)(=O)c2cccc(OCc3cccc(C#N)c3)n2)C(C)(C)C1 (stereo not shown) [Compound 2299, N—[[6-[(3-cyanophenyl)methoxy]-2-pyridyl]sulfonyl]-2-(2,2,4-trimethylpyrrolidin-1-yl)pyridine-3-carboxamide]
